Results as given in patent US11261187B2, “Compounds and methods for targeting HSP90” (Duke University, priority 2016, dated 2022).

Tests used:
MDA-MB-468 cells = test: 100 internalization assay in MDA-MB-468 cells; type: cell-based
Experimental: Cells were plated on uncoated 18-mm round coverslips in 12 well plates at 150,000 cells/well and were allowed to adhere overnight. 100, in a stock solution in DMSO, was diluted in serum-free/phenol red-free DMEM. After drug incubation, the cells were washed twice with ice-cold PBS, fixed with 1% PFA in PBS for 10 min, and stained with 5 μg/mL wheat germ agglutinin-488 (WGA-488, Invitrogen, Waltham, Mass.) and either Hoescht or DAPI. The coverslips were washed and mounted onto microscope slides using FluorSave mounting reagent (Millipore, Darmstadt, Germany). Slides were imaged on a Leica SP5 confocal microscope.
(§1) Images were analyzed for fluorescence and puncta using ImageJ software using a non-biased, high-throughput macro. In brief, cells were selected using an expanded selection from the DAPI channel. The regions of interest were then masked, a watershed filter was applied to split adjacent cells into separate cells, and the regions of interest were applied to the 100 channel to measure fluorescence and puncta. High resolution confocal stacks were deconvolved with Hyugen's Deconvolution Software or AiryScan.
(§2) To analyze the internalization of eHsp90 in transformed cells, the 4T1 cell model was utilized.

MDA-MB-468 flank tumors = test: Whole mouse 3D cryo-imaging of probe biodistribution, MDA-MB-468 flank xenograft; type: in vivo
Experimental: All protocols involving the use of mice were approved beforehand by the IACUC at Duke University and were strictly adhered to throughout the studies. A wild-type 3-month-old male SCID mouse with a right flank xenograft with MDA-MB-468 cells was injected with 25 nmol 100 through the tail vein. Six hours later, the mouse was euthanized, prepared according to the instructions from BioInVision, Inc. (Cleveland, Ohio, USA) and shipped for Cryo-Imaging and reconstruction. An EGFP/mCherry dual band filter set was used for imaging (#59022; Chroma Technology Corporation, Bellows Falls, Vt., USA).
The majority of cells are fully differentiated and not actively dividing, whereas some subpopulations of cells are constantly undergoing division and growth, such as the […] layer lining the intestinal tract. To determine if non-tumor cells express/internalize eHsp90, 3D cyrosectioning of mice bearing MDA-MB-468 flank tumors 6 hours post 100 injection was carried out. Probe uptake into the tumor in the live animal was first confirmed in a Licor instrument.
(§3) Whereas fluorophore-tethered probes are useful for detecting and following uptake of tumors on the skin surface in live animals, even with the most sensitive of far red or nIR detectors, due to light scattering, detection of emitted fluorescent light is limited to a depth of few mm of tissue. However, when used in conjunction with live imaging, 3D cryosectioning enables the biodistribution of fluorescent probes to the histological level throughout the body. Following sacrifice the animal was cryopreserved in liquid N2, then longitudinal cryosectioned at 40-μm slices. Each slice was imaged for fluorescence with an mCherry band filter (excitation 550-590 nm, emission 600-670 nm) as well as bright field (all slice image data can be down loaded at https://goo.gl/Z30dXJ). The images were reconstructed to create a 3D fluorescence and bright field images of the entire mouse anatomy (FIG. 4a). This process allowed for the first time a detailed examination of the complete biodistribution of 100 at the histological level in every organ. A control non-treated mouse was also imaged using an EGFP-mCherry dual band filter set. The limits of detection of 100 by fluorescence are estimated to be at <1-2 μmol. In a parallel study, an MS analysis was conducted on specific fluorescent tissues to confirm the presence of 100 parent ion (m/z=660.0 [M+2]2+).

[1] = MS analysis of tissues and urine for 100 parent ion after injection; type: in vivo, mouse
From the text: as §3

[2] = Absorbance and emission maxima of near IR fluorescent probes (Table 1); type: physicochemical
eHsp90 = test: Competition of fluorescent probe binding to eHsp90 on cells by untethered Hsp90 inhibitors; type: cell-based; conditions: for blocking of binding of 100 and HS-27 to eHsp90: untethered Hsp90 inhibitors
Experimental: Cells were plated on uncoated 18-mm round coverslips in 12 well plates at 150,000 cells/well and were allowed to adhere overnight. 100, in a stock solution in DMSO, was diluted in serum-free/phenol red-free DMEM. […] The coverslips were washed and mounted onto microscope slides using FluorSave mounting reagent (Millipore, Darmstadt, Germany). Slides were imaged on a Leica SP5 confocal microscope.
as §1, §2

SMILES	Abs. Max [2]	Em. Max [2]	blocking of binding of 100 and HS-27 to eHsp90 (eHsp90)	further results
Cc1nn(-c2ccc(C(N)=O)c(NCCCOCCOCCOCCOCCOCCCNCc3ccc(C(=C\C=C4\N(CCCCS(=O)(=O)O)c5ccccc5C4(C)C)/C=C/C4=[N+](CCCCS(=O)(=O)[O-])c5ccccc5C4(C)C)cc3)c2)c2c1C(=O)CC(C)(C)C2 [Compound 100, 4-(2-((1E,3Z)-3-(4-(21-((2-carbamoyl-5-(3,6,6-trimethyl-4-oxo-4,5,6,7-tetrahydro-1H-indazol-1-yl)phenyl)amino)-6,9,12,15,18-pentaoxa-2-azahenicosyl)phenyl)-5-((Z)-3,3-dimethyl-1-(4-sulfobutyl)indolin-2-ylidene)penta-1,3-dien-1-yl)-3,3-dimethyl-3H-indol-1-ium-1-yl)butane-1-sulfonate]				cell permeability (MDA-MB-468 cells): not cell permeable; clearance from vasculature (MDA-MB-468 flank tumors; 6 hour time point): cleared from the entire vasculature by the 6 hour time point; probe related fluorescence in major organs (heart, lungs, liver, kidney, spleen, brain, skeletal muscle, stomach, skin, thyroid, prostate, fur) (MDA-MB-468 flank tumors; 6 hour time point): completely devoid of 100 related fluorescence; probe in gut wall or endothelial lining of upper intestine (MDA-MB-468 flank tumors; 6 hours post injection, 25 nmol tail vein): no evidence of 100 in the gut wall or endothelial lining; uptake in skeletal structures, bone marrow, spinal and synovial fluid (MDA-MB-468 flank tumors; 6 hours, confirmed by MS analysis): No uptake; uptake into lymph nodes (MDA-MB-468 flank tumors; SCID mouse, 6 hours): uptake of 100 into the lymph nodes; MS detection of parent ion in intestines ([1]; 6 hr post-drug injection): did not show the presence of the parent 100 ion; concentration of intact parent molecule in tumor ([1]; MS analysis of flank tumor): ~325 nM (w.w.); concentration at 6 h ([1]; SCID, mouse, other: injection, MS analysis of urine, 6 hours): ~50 nM; MS detection of parent ion in eyes ([1]; mouse, in vivo): did not show evidence of the 100 parent ion; route of elimination ([1]; mouse, in vivo): primarily eliminated intact through the kidney
Cc1nn(-c2ccc(C(N)=O)c(NCCCOCCOCCOCCOCCOCCCNC(=O)c3ccc(C(=C\C=C4\N(CCCCS(=O)(=O)O)c5ccccc5C4(C)C)/C=C/C4=[N+](CCCCS(=O)(=O)[O-])c5ccccc5C4(C)C)cc3)c2)c2c1C(=O)CC(C)(C)C2 [Compound 102, 4-(2-((1E,3Z)-3-(4-((19-((2-carbamoyl-5-(3,6,6-trimethyl-4-oxo-4,5,6,7-tetrahydro-1H-indazol-1-yl)phenyl)amino)-4,7,10,13,16-pentaoxanonadecyl)-carbamoyl)phenyl)-5-((E)-3,3-dimethyl-1-(4-sulfobutyl)indolin-2-ylidene)penta-1,3-dien-1-yl)-3,3-dimethyl-3H-indol-1-ium-1-yl)butane-1-sulfonate]	643	670		
Cc1nn(-c2ccc(C(N)=O)c(NCCCOCCOCCOCCOCCOCCCNCc3ccc(C4=C(/C=C/C5=[N+](CCCCS(=O)(=O)[O-])c6ccccc6C5(C)C)CCC/C4=C\C=C4\N(CCCCS(=O)(=O)O)c5ccccc5C4(C)C)cc3)c2)c2c1C(=O)CC(C)(C)C2 [Compound 105, 4-(2-((E)-2-((E)-4′-(21-((2-carbamoyl-5-(3,6,6-trimethyl-4-oxo-4,5,6,7-tetrahydro-1H-indazol-1-yl)phenyl)amino)-6,9,12,15,18-pentaoxa-2-azahenicosyl)-6-(2-((E)-3,3-dimethyl-1-(4-sulfobutyl)indolin-2-ylidene)ethylidene)-3,4,5,6-tetrahydro-[1,1′-biphenyl]-2-yl)vinyl)-3,3-dimethyl-3H-indol-1-ium-1-yl)butane-1-sulfonate]	766	796		
Cc1nn(-c2ccc(C(N)=O)c(NCCCOCCOCCOCCOCCOCCCNC(=O)c3ccc(C4=C(/C=C/C5=[N+](CCCCS(=O)(=O)[O-])c6ccccc6C5(C)C)CCC/C4=C\C=C4\N(CCCCS(=O)(=O)O)c5ccccc5C4(C)C)cc3)c2)c2c1C(=O)CC(C)(C)C2 [Compound 106, 4-(2-((E)-2-((E)-4′-((19-((2-carbamoyl-5-(3,6,6-trimethyl-4-oxo-4,5,6,7-tetrahydro-1H-indazol-1-yl)phenyl)amino)-4,7,10,13,16-pentaoxanonadecyl)carbamoyl)-6-(2-((E)-3,3-dimethyl-1-(4-sulfobutyl)indolin-2-ylidene)ethylidene)-3,4,5,6-tetrahydro-[1,1′-biphenyl]-2-yl)vinyl)-3,3-dimethyl-3H-indol-1-ium-1-yl)butane-1-sulfonate]	766	795		
Cc1nn(-c2ccc(C(N)=O)c(NCCCOCCOCCOCCOCCOCCCNCc3ccc(C4=C(/C=C/C5=[N+](CCCCS(=O)(=O)[O-])c6ccc(S(=O)(=O)O)cc6C5(C)C)CCC/C4=C\C=C4\N(CCCCS(=O)(=O)O)c5ccc(S(=O)(=O)O)cc5C4(C)C)cc3)c2)c2c1C(=O)CC(C)(C)C2 [Compound 108, 4-(2-((E)-2-((E)-4′-(21-((2-carbamoyl-5-(3,6,6-trimethyl-4-oxo-4,5,6,7-tetrahydro-1H-indazol-1-yl)phenyl)amino)-6,9,12,15,18-pentaoxa-2-azahenicosyl)-6-(2-((E)-3,3-dimethyl-5-sulfo-1-(4-sulfobutyl)indolin-2-ylidene)ethylidene)-3,4,5,6-tetrahydro-[1,1′-biphenyl]-2-yl)vinyl)-3,3-dimethyl-5-sulfo-3H-indol-1-ium-1-yl)butane-1-sulfonate]	775	802		
Cc1nn(-c2ccc(C(N)=O)c(NCCCOCCOCCOCCOCCOCCCNCc3ccc(C4=C(/C=C/C5=[N+](CCCCS(=O)(=O)[O-])c6ccc7ccccc7c6C5(C)C)CCC/C4=C\C=C4\N(CCCCS(=O)(=O)O)c5ccc6ccccc6c5C4(C)C)cc3)c2)c2c1C(=O)CC(C)(C)C2 [Compound 111]	803	828		
Cc1nn(-c2ccc(C(N)=O)c(NCCCOCCOCCOCCOCCOCCCNC(=O)c3ccc(C4=C(/C=C/C5=[N+](CCCCS(=O)(=O)[O-])c6ccc7ccccc7c6C5(C)C)CCC/C4=C\C=C4\N(CCCCS(=O)(=O)O)c5ccc6ccccc6c5C4(C)C)cc3)c2)c2c1C(=O)CC(C)(C)C2 [Compound 112]	803	829		
CC(C)c1cc(-c2n[nH]c(=O)n2-c2ccc3c(ccn3C)c2)c(O)cc1O [Ganetespib]			blocked	
CC(C)NCCCn1c(Sc2cc3c(cc2I)OCO3)nc2c(N)ncnc21 [PUH71]			blocked	competition of binding of probe 100 to eHsp90 (eHsp90; MDA-MB-468 cells, 100 at 25 μM, 45 min, 1 μM HS-10 or 10 μM PUH71): competed
CC1(C)CC(=O)c2c(C(F)(F)F)nn(-c3ccc(C(N)=O)c(N[C@H]4CC[C@H](O)CC4)c3)c2C1 [SNX2112]			blocked	
